Consider three compounds from ChEMBL document CHEMBL6083243, “Design, synthesis and biological evaluation of sulfonylurea derivatives as NLRP3 inflammasome inhibitors” (Bioorg Med Chem Lett, 2024).

Molecules are shown by their SMILES. pIC50: −log10 of the molar value. Calls of active or inactive are those of the source. The rule behind the calls is not given here.

In assay [1] the target is NACHT, LRR and PYD domains-containing protein 3 (Mus musculus, UniProt Q8R4B8). Briefly: Inhibition of NLRP3 inflammasome activation in LPS/Nigericin stimulated mouse BMDM cells assessed as reduction in cleaved-IL-1 beta level by ELISA method. In kind it is cell-based. For orientation: ELISA stands for enzyme-linked immunosorbent assay.
Another assay concerns the target Carbonic anhydrase 2 (Homo sapiens, UniProt P00918). The experiment in a line: Inhibition of Carbonic anhydrase II (unknown origin).
In assay [2] the target is NACHT, LRR and PYD domains-containing protein 3 (Mus musculus) (UniProt Q8R4B8). The experiment in a line: Inhibition of NLRP3 inflammasome activation in LPS/Nigericin stimulated mouse BMDM cells assessed as reduction in active caspase-1 level by Western blot analysis. In kind it is cell-based. The settings on record: dose 0.2-2 µM. In general terms: A western blot detects proteins with antibodies after separation by electrophoresis.

For assay [3] the target is unchanged. The experiment in a line: Inhibition of NLRP3 inflammasome activation in LPS/Nigericin stimulated mouse BMDM cells assessed as reduction in IL-1 beta level by Western blot analysis. In kind it is cell-based. The settings on record: dose 0.2-2 µM.
In another assay the test system is BMDM. Briefly: Effect on NLRP3 protein expression in mouse BMDM cell lysate at 0.02 to 2 uM by Western blot analysis. In kind it is functional, subcellular. Particulars: dose 0.02-2 µM.

Sequence of NACHT, LRR and PYD domains-containing protein 3 (Q8R4B8 whole entry, the tested form may be a part): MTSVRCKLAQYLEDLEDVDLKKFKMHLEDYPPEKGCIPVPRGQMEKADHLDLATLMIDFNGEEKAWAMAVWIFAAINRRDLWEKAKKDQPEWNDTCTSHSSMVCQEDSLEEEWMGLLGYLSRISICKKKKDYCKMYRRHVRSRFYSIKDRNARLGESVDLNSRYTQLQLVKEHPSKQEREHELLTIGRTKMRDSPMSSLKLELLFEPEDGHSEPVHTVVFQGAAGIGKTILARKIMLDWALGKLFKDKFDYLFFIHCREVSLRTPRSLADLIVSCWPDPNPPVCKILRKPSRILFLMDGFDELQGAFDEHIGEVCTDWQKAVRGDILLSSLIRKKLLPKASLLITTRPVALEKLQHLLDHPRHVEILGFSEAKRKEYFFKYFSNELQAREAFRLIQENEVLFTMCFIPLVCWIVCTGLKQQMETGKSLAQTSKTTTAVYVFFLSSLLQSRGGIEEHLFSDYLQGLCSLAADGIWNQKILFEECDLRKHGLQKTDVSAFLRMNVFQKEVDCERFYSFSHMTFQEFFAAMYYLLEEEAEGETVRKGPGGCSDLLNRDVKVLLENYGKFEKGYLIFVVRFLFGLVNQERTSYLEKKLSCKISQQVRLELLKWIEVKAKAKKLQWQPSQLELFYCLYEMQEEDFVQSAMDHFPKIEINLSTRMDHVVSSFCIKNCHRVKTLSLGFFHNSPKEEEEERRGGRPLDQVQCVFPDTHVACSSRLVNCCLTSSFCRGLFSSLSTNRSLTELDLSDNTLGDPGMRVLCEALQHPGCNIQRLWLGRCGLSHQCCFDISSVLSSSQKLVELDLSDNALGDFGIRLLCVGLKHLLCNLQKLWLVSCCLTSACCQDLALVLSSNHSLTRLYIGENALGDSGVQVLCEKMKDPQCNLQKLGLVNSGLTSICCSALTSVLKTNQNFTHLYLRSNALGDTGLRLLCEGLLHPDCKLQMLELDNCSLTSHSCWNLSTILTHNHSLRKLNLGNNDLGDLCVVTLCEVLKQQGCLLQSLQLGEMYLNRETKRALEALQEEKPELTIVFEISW
Sequence of NACHT, LRR and PYD domains-containing protein 3 (Mus musculus) (Q8R4B8 whole entry, the tested form may be a part): as above

Consider `CC(C)c1cc(Cl)cc(C(C)C)c1NC(=O)NS(=O)(=O)c1cc(C(C)(C)O)co1`, for which, in assay [1], the pIC50 (usually the negative decadic logarithm of the IC50, by convention in mol/L) was 6.77.

For the compound `CC(C)(O)c1coc(S(=O)(=O)NC(=O)Nc2c3c(cc4c2CCC4)CCC3)c1`, the negative logarithm of the IC50 (pIC50) at Carbonic anhydrase 2 was 4.96; in assay [1], 6.90.

For the compound `O=C(Nc1c(Br)cc(Cl)cc1Oc1ccccc1)NS(=O)(=O)c1cc(Br)cc2c1OCC2`, the inhibition result in assay [2] and in assay [3] was “Dose-dependent-effect” throughout. Besides, the pIC50 in assay [1] is 6.09. Besides, in the assay on BMDM, the outcome was inactive.
